What all share (format): cell-based
For one experiment, the system named is breast cancer (BT-474). Nature of the experiment: Anticancer activity assay (WST-8 cell growth), BT-474. The following applies: Homo sapiens, BT-474, 96 h, read-out: IC50 (nM) BT-474. As for the experimental part: (§1) The compounds of the present invention were assayed for inhibitory activity against 7 cancer cell lines as breast cancer (BT-474), human epithelial cancer (A-431), non-small cell lung cancer (NCI-H460), colon cancer (HT-29), colon cancer (SW-620), breast cancer (MDA-MB-231) and breast cancer (MCF-7).
(§2) Briefly, a suspension of each cancer cell line was serially diluted, and plated at a density of 2˜3×10^3 cells/well into 96-well microplates, followed by incubation at 37° C. for 4 day in a 5% CO2 atmosphere. Cell growth in a monolayer was measured using WST-8 reagemt (Dojindo, Japan).
(§3) IC50 values of the compounds against the cancer cell lines were calculated as compound concentrations at which the cells were grown by 50% OD of the control.
For orientation: Formazan colour is commonly taken as a measure of viable cells.

Experiment [1] deals with non-small cell lung cancer (NCI-H460). In words: Anticancer activity assay (WST-8 cell growth), NCI-H460. Conditions: Homo sapiens, NCI-H460, 96 h, read-out: IC50 (nM) NCI-H460. Here is the method:
as §1, §2, §3

The next experiment concerns colon cancer (SW-620). In words: Anticancer activity assay (WST-8 cell growth), SW-620. Conditions: Homo sapiens, SW-620, 96 h, read-out: IC50 (nM) SW-620. Here is the method:
as §1, §2, §3

The test system of a further experiment is breast cancer (MCF-7). In words: Anticancer activity assay (WST-8 cell growth), MCF-7. The following applies: Homo sapiens, MCF7, 96 h, read-out: IC50 (nM) MCF-7. Here is the method:
as §1, §2, §3

SMILES strings stand for the structures.

As for `CC[C@H](C)[C@@H]([C@@H](CC(=O)N1C[C@H](O)C[C@@H]1[C@H](OC)[C@@H](C)C(=O)NCCc1ccccc1)OC)N(C)C(=O)[C@@H](NC(=O)[C@H](C(C)C)N(C)C)C(C)C` [Compound I-8, (S)-2-((S)-2-(dimethylamino)-3-methylbutaneamido)-N-((3R,4S,5S)-1-((2R,4R)-4-hydroxy-2-((1R,2R)-1-methoxy-2-methyl-3-oxo-3-(phenethylamino)propyl)pyrrolidin-1-yl)-3-methoxy-5-methyl-1-oxoheptan-4-yl)-N,3-dimethylbutanamide], the IC50 turned out to be 0.68 nM in the experiment with breast cancer (BT-474), 1.5 nM in experiment [1], 2.9 nM in the experiment with colon cancer (SW-620) and 27 nM in the experiment with breast cancer (MCF-7).
On the same counts, the results for `CC[C@H](C)[C@@H]([C@@H](CC(=O)N1CC(=O)C[C@@H]1[C@H](OC)[C@@H](C)C(=O)NCCc1ccccc1)OC)N(C)C(=O)[C@@H](NC(=O)[C@H](C(C)C)N(C)C)C(C)C` [Compound I-9, (S)-2-((S)-2-(dimethylamino)-3-methylbutaneamido)-N-((3R,4S,5S)-3-methoxy-1-((R)-2-((1R,2R)-1-methoxy-2-methyl-3-oxo-3-(phenethylamino)propyl)-4-oxopyrrolidin-1-yl)-5-methyl-1-oxoheptan-4-yl)-N,3-dimethylbutanamide] are 5.23 nM, 10.9 nM, 27.7 nM and 27 nM.
As for `CC[C@H](C)[C@@H]([C@@H](CC(=O)N1C[C@H](OC)CC1[C@H](OC)[C@@H](C)C(=O)NCC(=O)c1ccc(F)cc1C)OC)N(C)C(=O)[C@@H](NC(=O)[C@@H](NC)C(C)C)C(C)C` (stereo partly drawn) [Compound I-27], the concentration for half-maximal inhibition (IC50) in the experiment with breast cancer (BT-474) is 0.5 nM.
The same measure, in the same setting: for `CC[C@H](C)[C@@H]([C@@H](CC(=O)N1C[C@H](OC)C[C@H]1[C@H](OC)[C@@H](C)C(=O)NCC(=O)c1ccccc1C)OC)N(C)C(=O)[C@@H](NC(=O)[C@@H](NC)C(C)C)C(C)C` [Compound I-28, (S)—N-((3R,4S,5S)-3-methoxy-1-((2S,4R)-4-methoxy-2-((1R,2R)-1-methoxy-2-methyl-3-oxo-3-((2-oxo-2-(o-tolyl)ethyl)amino)propyl)pyrrolidin-1-yl)-5-methyl-1-oxoheptan-4-yl)-N,3-dimethyl-2-((S)-3-methyl-2-(methylamino)butaneamido)butanamide] the value was 0.65 nM; for `CC[C@H](C)[C@@H]([C@@H](CC(=O)N1C[C@H](OC)C[C@H]1[C@H](OC)[C@@H](C)C(=O)NCC(=O)c1ccc(C)cc1)OC)N(C)C(=O)[C@@H](NC(=O)[C@@H](NC)C(C)C)C(C)C` [Compound I-29, (S)—N-((3R,4S,5S)-3-methoxy-1-((2S,4R)-4-methoxy-2-((1R,2R)-1-methoxy-2-methyl-3-oxo-3-((2-oxo-2-(p-tolyl)ethyl)amino)propyl)pyrrolidin-1-yl)-5-methyl-1-oxoheptan-4-yl)-N,3-dimethyl-2-((S)-3-methyl-2-(methylamino)butaneamido)butanamide], 0.61 nM; for `CC[C@H](C)[C@@H]([C@@H](CC(=O)N1C[C@H](OC)C[C@H]1[C@H](OC)[C@@H](C)C(=O)NCC(=O)c1ccc(F)cc1)OC)N(C)C(=O)[C@@H](NC(=O)[C@@H](NC)C(C)C)C(C)C` [Compound I-30], 0.77 nM.
Same read-out and setting: for `CC[C@H](C)[C@@H]([C@@H](CC(=O)N1C[C@H](OC)C[C@H]1[C@H](OC)[C@@H](C)C(=O)NCC(=O)c1ccc(OC)cc1F)OC)N(C)C(=O)[C@@H](NC(=O)[C@@H](NC)C(C)C)C(C)C` [Compound I-31] the value was 0.54 nM.
The same measure, in the same setting: for `CC[C@H](C)[C@@H]([C@@H](CC(=O)N1CSC[C@@H]1[C@H](OC)[C@@H](C)C(=O)NCCc1c(F)cccc1F)OC)N(C)C(=O)[C@@H](NC(=O)[C@@H](NC)C(C)C)C(C)C` [Compound I-32, (S)—N-((3R,4S,5S)-1-((S)-4-((1R,2R)-3-((2,6-difluorophenethyl)amino)-1-methoxy-2-methyl-3-oxopropyl)thiazolidin-3-yl)-3-methoxy-5-methyl-1-oxoheptan-4-yl)-N,3-dimethyl-2-((S)-3-methyl-2-(methylamino)butaneamido)butanamide] the value was 0.64 nM.
As for `CC[C@H](C)[C@@H]([C@@H](CC(=O)N1C[C@H](OC)C[C@H]1[C@H](OC)[C@@H](C)C(=O)NCC(=O)c1ccccc1)OC)N(C)C(=O)[C@@H](NC(=O)[C@@H](NC)C(C)C)C(C)C` [Compound I-34], the results for the concentration for half-maximal inhibition (IC50) (with breast cancer (BT-474); in experiment [1]) were 9.71 nM and 10.9 nM, respectively.
`CC[C@H](C)[C@@H]([C@@H](CC(=O)N1C[C@H](OC)C[C@H]1[C@H](OC)[C@@H](C)C(=O)NCCc1ccccn1)OC)N(C)C(=O)[C@@H](NC(=O)[C@@H](NC)C(C)C)C(C)C` [Compound I-38, (2S)—N-((3R,4S)-3-methoxy-1-((2S,4R)-4-methoxy-2-((1R,2R)-1-methoxy-2-methyl-3-oxo-3-((2-(pyridin-2-yl)ethyl)amino)propyl)pyrrolidin-1-yl)-5-methyl-1-oxoheptan-4-yl)-N,3-dimethyl-2-((S)-3-methyl-2-(methylamino)butaneamido)butanamide]: the concentration for half-maximal inhibition (IC50) in the experiment on breast cancer (BT-474) came to 1.32 nM.
`CC[C@H](C)[C@@H]([C@@H](CC(=O)N1C[C@H](OC)C[C@H]1[C@H](OC)[C@@H](C)C(=O)NCCc1cccs1)OC)N(C)C(=O)[C@@H](NC(=O)[C@@H](NC)C(C)C)C(C)C` [Compound I-39, (2S)—N-((3R,4S)-3-methoxy-1-((2S,4R)-4-methoxy-2-((1R,2R)-1-methoxy-2-methyl-3-oxo-3-((2-(thiophen-2-yl)ethyl)amino)propyl)pyrrolidin-1-yl)-5-methyl-1-oxoheptan-4-yl)-N,3-dimethyl-2-((S)-3-methyl-2-(methylamino)butaneamido)butanamide]: the IC50 in the experiment on breast cancer (BT-474) was determined as 0.67 nM.
Still for that read-out and setting: for `CC[C@H](C)[C@@H]([C@@H](CC(=O)N1C[C@@H](O)C[C@H]1[C@H](OC)[C@@H](C)C(=O)NCCc1c(F)cccc1F)OC)N(C)C(=O)[C@@H](NC(=O)[C@H](C(C)C)N(C)C)C(C)C` [Compound I-40] the value was 0.23 nM.
As to `CC[C@H](C)[C@@H]([C@@H](CC(=O)N1C[C@@H](O)C[C@H]1[C@H](OC)[C@@H](C)C(=O)N[C@@H](C)C(=O)c1ccc(F)cc1)OC)N(C)C(=O)[C@@H](NC(=O)[C@H](C(C)C)N(C)C)C(C)C` [Compound I-41, (2S)-2-((S)-2-(dimethylamino)-3-methylbutaneamido)-N-((3R,4S)-1-((2S,4S)-2-((1R,2R)-3-(((S)-1-(4-fluorophenyl)-1-oxopropan-2-yl)amino)-1-methoxy-2-methyl-3-oxopropyl)-4-hydroxypyrrolidin-1-yl)-3-methoxy-5-methyl-1-oxoheptan-4-yl)-N,3-dimethylbutanamide], the IC50 with breast cancer (BT-474) amounted to 1.83 nM.
Same read-out and setting: for `CC[C@H](C)[C@@H]([C@@H](CC(=O)N1C[C@@H](O)C[C@H]1[C@H](OC)[C@@H](C)C(=O)NCCc1c(F)cccc1F)OC)N(C)C(=O)[C@@H](NC(=O)[C@@H](NC)C(C)C)C(C)C` [Compound I-42, (2S)—N-((3R,4S)-1-((2S,4S)-2-((1R,2R)-3-((2,6-difluorophenethyl)amino)-1-methoxy-2-methyl-3-oxopropyl)-4-hydroxypyrrolidin-1-yl)-3-methoxy-5-methyl-1-oxoheptan-4-yl)-N,3-dimethyl-2-((S)-3-methyl-2-(methylamino)butaneamido)butanamide] the value was 0.74 nM; for `CC[C@H](C)[C@@H]([C@@H](CC(=O)N1C[C@@H](O)C[C@H]1[C@H](OC)[C@@H](C)C(=O)N[C@@H](C)C(=O)c1ccc(F)cc1)OC)N(C)C(=O)[C@@H](NC(=O)[C@@H](NC)C(C)C)C(C)C` [Compound I-43, (2S)—N-((3R,4S)-1-((2S,4S)-2-((1R,2R)-3-(((S)-1-(4-fluorophenyl)-1-oxopropan-2-yl)amino)-1-methoxy-2-methyl-3-oxopropyl)-4-hydroxypyrrolidin-1-yl)-3-methoxy-5-methyl-1-oxoheptan-4-yl)-N,3-dimethyl-2-((S)-3-methyl-2-(methylamino)butaneamido)butanamide], 6.43 nM; for `CC[C@H](C)[C@@H]([C@@H](CC(=O)N1C[C@@H](N)C[C@H]1[C@H](OC)[C@@H](C)C(=O)NCCc1c(F)cccc1F)OC)N(C)C(=O)[C@@H](NC(=O)[C@H](C(C)C)N(C)C)C(C)C` [Compound I-44, (2S)—N-((3R,4S)-1-((2S,4S)-4-amino-2-((1R,2R)-3-((2,6-difluorophenethyl)amino)-1-methoxy-2-methyl-3-oxopropyl)pyrrolidin-1-yl)-3-methoxy-5-methyl-1-oxoheptan-4-yl)-2-((S)-2-(dimethylamino)-3-methylbutaneamido)-N,3-dimethylbutanamide], 0.17 nM.
For `CC[C@H](C)[C@@H]([C@@H](CC(=O)N1C[C@@H](NC)C[C@H]1[C@H](OC)[C@@H](C)C(=O)NCCc1c(F)cccc1F)OC)N(C)C(=O)[C@@H](NC(=O)[C@H](C(C)C)N(C)C)C(C)C` [Compound I-45, (2S)—N-((3R,4S)-1-((2S,4S)-2-((1R,2R)-3-((2,6-difluorophenethyl)amino)-1-methoxy-2-methyl-3-oxopropyl)-4-(methylamino)pyrrolidin-1-yl)-3-methoxy-5-methyl-1-oxoheptan-4-yl)-2-((S)-2-(dimethylamino)-3-methylbutaneamido)-N,3-dimethylbutanamide], the IC50 with breast cancer (BT-474) stood at 0.34 nM.

In general, IC50 refers to the concentration at which inhibition is half-maximal.
